These results are taken from patent US20260297081A1, “COMPOUNDS AND METHODS OF TREATING CANCERS” (Cullgen Inc., priority 2023, published 2026).

Data set [1] relates to T47D parental cells. Briefly: CellTiter-Lumi cell viability assay, T47D parental cells, 6 days (FIG. 4). The following applies: Homo sapiens, 144 h. It counts as cell-based. On the procedure: (§1) Furthermore, we developed one ER^+ breast cancer T47D model with acquired resistance after long period of treatment with 1 μM palbociclib (over IC90). Cells were deemed resistant when growing in the presence of palbo at the same rate as parental cells. Palbo resistance was determined by CellTiter-Lumi cell viability assay (FIG. 4, IC50>10,000 nM).

Data set [2] in a line: Mouse pharmacokinetics (FIG. 5). It counts as in vivo, male Swiss Albino mice. The following applies: plasma, po, mice, 1 mg/kg i.v. and 10 mg/kg p.o., over 12 hours. On the procedure:
A single dose of CPD-39 via 1 mg/kg intravenous (i.v.) injection or 10 mg/kg oral (p.o.) gavage was evaluated in mice. Plasma concentration of CPD-39 reported at each time points post dosing (5 min, 15 min, 30 min, 1 h, 2 h, 4 h, and 8 h via i.v.; 15 min, 30 min, 1 h, 2 h, 4 h, 6 h, 8 h, and 12 h via p.o.) represents the mean value derived from 3 experimental animals.
Standard PK studies were conducted using male Swiss Albino mice by Sai Life Sciences. A single dose of test compound via intravenous (i.v.) injection or oral (p.o.) gavage was evaluated in fed mice. Plasma concentration of test compound reported at each time points represents the mean value derived from 3 experimental animals. Error bars represent +SD.

For data set [3], the target named is T1, CDK4 (Homo sapiens, UniProt P11802+Q16531). Briefly: CDK4 percentage degradation in Calu-1 cells (Table 6). It is filed as cell-based. The arrangement: Cells that express cyclin D1-3 and CDK4/6 proteins were treated with heterobifunctional compounds; endogenous in cells; host or cells: Calu-1. The following applies: 16 hours. Put shortly: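 Percentage degradation of Cyclin D1 and CDK4 derived from densitometry of ECL Western blots on lysates of Calu-1 cells. Treatment was 16 h with compound at either 40 nM or 200 nM.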

Data set [4] relates to T47D cells. Put plainly: Anti-proliferation (viability) of ER+ breast cancer T47D cells, 6 days (Table 7, FIG. 2B). It is filed as cell-based. The following applies: Homo sapiens, 144 h; T47D cells, 6 days, 10-point serial dilution; read-out: GI IC50 in T47D. The procedure, abridged: (§2)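 Viability is read after treatment with compounds titrated over ten serial dilution points, with exposure lasting three days for the NSCLC line and six days for the breast cancer line.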

The subject of data set [5] is T47D palbo-resistant cells. Briefly: CellTiter-Lumi cell viability assay, T47D palbo-resistant cells, 6 days (FIG. 4). It counts as cell-based. The following applies: Homo sapiens, 144 h. Here is the method:
as §1

Data set [6] has as its system MCF7 cells. Put plainly: Anti-proliferation (viability) of MCF7 cells (Table 7, FIG. 2B). It is filed as cell-based. The following applies: Homo sapiens, MCF7, MCF7 cells, 3-6 days, 10-point serial dilution; read-out: GI IC50 in MCF-7.
Data set [7] in a line: Pharmacokinetics in mice, single dose i.v. injection or oral gavage (FIG. 5). It counts as in vivo. The following applies: mouse, plasma. Here is the method:
To investigate the pharmacokinetics of heterobifunctional compounds, exemplified by CPD-39, a single dose of CPD-39 via 1 mg/kg intravenous (i.v.) injection or 10 mg/kg was evaluated in mice. Plasma concentration reported at each time points post dosing represents the mean value derived from 3 experimental animals.

Data set [8] relates to T47D palbo-resistant cells. Briefly: Cell viability in T47D palbociclib-resistant model (FIG. 4). It is filed as cell-based. The following applies: 10-point serial dilution, 6 days. On the procedure:
T47D cells were cultured long-term to resistance in the presence of 1 μM Palbociclib. Palbo resistance was determined by CellTiter-Lumi cell viability assay. T47D parental or palbo-resistant cells were treated with palbociclib, or heterobifunctional compounds CPD-10 or CPD-39 following a 10-point serial dilution for 6 days.
(§3) Calu-1, T47D, MCF7, HCC1428 and other cells were cultured at 37° C. with 5% CO2 in RPMI 1640 or DMEM medium supplemented with 10% fetal bovine serum. Cells were authenticated using the short tandem repeat (STR) assays. Mycoplasma test results were negative. For palbo-resistant cell model, T47D cells were cultured long-term to resistance in the presence of 1 μM Palbociclib. Cells were deemed resistant when growing in the presence of Palbo at the same rate as parental cells.
Cells were seeded at a density of 2,000-5,000 cells per well in 96-well assay plates and treated with test compounds following a 10-point serial dilution for 3-6 days. Cell viability was determined using the CellTiter-Lumi assay kit according to the manufacturer's instructions. The dose-response curves were determined and IC50 values were calculated using the GraphPad Prism software following a nonlinear regression (least squares fit) method. Data presented was mean±standard deviation (SD)unless otherwise indicated.

The subject of data set [9] is Calu-1 cells. Briefly: Anti-proliferation (viability) of NSCLC Calu-1 cells, 3 days (Table 7, FIG. 2B). It is filed as cell-based. The following applies: Homo sapiens, 72 h; Calu-1 cells, 3 days, 10-point serial dilution; read-out: GI IC50 in Calu-1. The procedure, abridged:
as §2

The test system of data set [10] is HCC1428 cells. Briefly: Annexin V apoptosis flow cytometry, HCC1428 (FIG. 3B). It counts as cell-based. The following applies: HCC1428, dose approximating IC90, 6 days. On the procedure: (§4) T47D cells were treated with DMSO, palbociclib, heterobifunctional compound CPD-10 for 6 days at doses approximating IC50 and IC90 concentrations as indicated (FIG. 3A). HCC1428 cells were treated with DMSO, palbociclib, heterobifunctional compound CPD-10, or its negative control compound CPD-143 for 6 days at doses approximating IC90 concentrations as indicated (FIG. 3B). Cells were harvested by trypsinization, staining was carried out using the Annexin V Apoptosis Detection Kit.
(§5) Assays were performed on the CytoFLEX Cytometer (Beckman Coulter), and data were analyzed using CytExpert software. For cell death and apoptosis analysis, cells were harvested by trypsinization, staining was carried out using the Annexin V Apoptosis Detection Kit (BD Biosciences). Briefly, cells were resuspended in 1× binding buffer and incubated with fluorochrome-conjugated Annexin V and 7-AAD for 15 min in darkness at room temperature.
In general terms: Flow cytometry measures light scatter and fluorescence of single cells or particles in a stream.

Data set [11] deals with HCC1428 cells. Briefly: Flow cytometric analysis of Annexin V/7-AAD stained HCC1428 cells (apoptosis), 6 days (FIG. 3B). It is filed as cell-based. The following applies: HCC1428; 1 μM; 6 days. On the procedure: as §4, with “IC50and” for “IC50 and”, “Kit. The percentages of early apoptotic (Annexin V^+7-AAD^−, lower right quadrant), late apoptotic (Annexin V^+7-AAD^+, upper right quadrant) and necrotic cells (Annexin V^−7-AAD^+, upper left quadrant) are indicated on dot plots.” for “Kit.”

Data set [12] relates to T47D cells. Briefly: Flow cytometric analysis of Annexin V/7-AAD stained T47D cells (apoptosis), 6 days (FIG. 3A). It is filed as cell-based. Here is the method:
as §4, with “IC50and” for “IC50 and”, “Kit. The percentages of early apoptotic (Annexin V^+7-AAD^−, lower right quadrant), late apoptotic (Annexin V^+7-AAD^+, upper right quadrant) and necrotic cells (Annexin V^−7-AAD^+, upper left quadrant) are indicated on dot plots.” for “Kit.”

Data set [13] relates to CCND3. Put plainly: Immunoblotting of CCND3 protein level in Calu-1 and MCF7 cells (FIG. 1A-1B). It counts as cell-based. The following applies: Calu-1 cells, 4 hours. Here is the method: (§6) Calu-1 cells were treated with heterobifunctional compound CPD-10, or CDK4/6 inhibitor palbociclib at indicated concentrations for 4 hours (FIG. 1A). MCF7 cells were deprived of serum for 2 hours followed by treatment with CPD-10, or palbociclib at indicated concentrations for 24 hours (FIG. 1B).
(§7) Antibody and Reagent Anti-cyclin D1 (29785), anti-cyclin D2 (3741S), anti-cyclin D3 (2936S), anti-CDK4 (127905), anti-CDK6 (3136S), anti-phospho-Rb (8516S), anti-FoxM1 (54365), anti-cyclinA2(4656S), anti-vinculin antibody (187995) antibodies were purchased from Cell Signaling Technology. HRP-conjugated anti-α-tubulin antibody and anti-α-GAPDH antibody were purchased from GNI. Media, and other cell culture reagents were purchased from Thermo Fisher Scientific. CellTiter-Glo Luminescent Assay kit was purchased from Promega.
as §3
(§8) Cultured cells were washed with cold PBS once and lysed in cold RIPA buffer supplemented with protease inhibitors and phosphatase inhibitors (Beyotime Biotechnology). The solutions were then incubated at 4 ? for 30 min with gentle agitation to fully lysed cells. Cell lysates were centrifuged at 13,000 rpm for 10 min at 4 ? and pellets were discarded. Total protein concentrations in the lysates were determined following BCA assays (Beyotime Biotechnology). Cell lysates were mixed with Laemmli loading buffer and heated at 99° C. for 5 min. Proteins were resolved on SDS-PAGE and visualized using Western ECL Substrate kits on a ChemiDoc MP Imaging system (Bio-Rad). Protein bands were quantitated using the Image Lab software provided by Bio-Rad.

The test system of data set [14] is CCND1, CCND3, and CDK4 in MCF7 cells. Put plainly: Immunoblot of CCND1, CCND3 and CDK4 protein levels in MCF7 cells under serum starvation (FIG. 1B, 24 hours). It counts as cell-based. The following applies: MCF7 cells, CDK4/6 inhibitor. On the procedure:
(§9) Specific exemplary heterobifunctional compounds were characterized in Calu-1, MCF7, T47D and other cells. Cells that express cyclin D1-3 and CDK4/6 proteins were treated with heterobifunctional compounds disclosed herein at indicated concentrations. MCF7 cells were deprived of serum for 2 hours followed by the treatment with heterobifunctional compounds. Cells were collected, lysed and subject to immunoblotting using an antibody specific to CCND1, CCND2, CCND3, CDK4, or FoxM1, cyclin A2, or phosphorylated Rb (S807/811) proteins. Tubulin or GAPDH was used as the loading control. DMSO treatment was used as the negative control.
(In western blotting, separated proteins are transferred to a membrane and probed.)

Data set [15] relates to CCND1. Put plainly: Immunoblotting of CCND1 protein level in Calu-1 and MCF7 cells (FIG. 1A-1B). It is filed as cell-based. On the procedure:
as §6, §7, §3, §8

The subject of data set [16] is CCND1, CCND3, and CDK4 in Calu-1 cells. Put plainly: Immunoblot of CCND1, CCND3 and CDK4 protein levels in Calu-1 cells (FIG. 1A, 4 hours). It is filed as cell-based. The following applies: Calu-1 cells, CDK4/6 inhibitor. Here is the method:
as §9

Data set [17] has as its system T47D cells. Briefly: Annexin V apoptosis flow cytometry, T47D (FIG. 3A). The following applies: doses approximating IC50 and IC90, 6 days. It counts as cell-based. On the procedure: as §4, §5
Data set [18] deals with T1, CDK4. Briefly: Immunoblotting of CDK4 protein level in Calu-1 and MCF7 cells (FIG. 1A-1B). It counts as cell-based. The arrangement: Cells that express cyclin D1-3 and CDK4/6 proteins were treated with heterobifunctional compounds; endogenous in cells; host or cells: Calu-1. The following applies: Calu-1 cells, 4 hours. On the procedure:
as §6, §7, §3, §8

SMILES strings stand for the structures. Like-named read-outs stand apart in the source and are kept apart here. Some results are limits rather than exact numbers.

For orientation: IC50 means the midpoint of a concentration-inhibition curve. Usually bioavailability stands for the share of a dose that reaches the circulation, judged against a reference dose that is usually intravenous. A lower bioavailability goes with poor availability. Usually inhibition stands for the percentage by which the read-out fell short of the control.

T1 sequence (P11802 2-303 limits assumed): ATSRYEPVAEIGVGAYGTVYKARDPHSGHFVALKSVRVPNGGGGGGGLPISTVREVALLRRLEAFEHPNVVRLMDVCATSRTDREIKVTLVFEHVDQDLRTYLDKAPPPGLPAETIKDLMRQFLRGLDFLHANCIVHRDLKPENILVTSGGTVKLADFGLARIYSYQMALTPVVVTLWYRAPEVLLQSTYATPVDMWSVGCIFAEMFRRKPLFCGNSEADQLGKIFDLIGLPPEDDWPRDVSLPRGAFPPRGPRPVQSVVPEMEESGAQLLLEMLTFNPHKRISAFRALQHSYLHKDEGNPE
T1 sequence (P24385 whole entry partner): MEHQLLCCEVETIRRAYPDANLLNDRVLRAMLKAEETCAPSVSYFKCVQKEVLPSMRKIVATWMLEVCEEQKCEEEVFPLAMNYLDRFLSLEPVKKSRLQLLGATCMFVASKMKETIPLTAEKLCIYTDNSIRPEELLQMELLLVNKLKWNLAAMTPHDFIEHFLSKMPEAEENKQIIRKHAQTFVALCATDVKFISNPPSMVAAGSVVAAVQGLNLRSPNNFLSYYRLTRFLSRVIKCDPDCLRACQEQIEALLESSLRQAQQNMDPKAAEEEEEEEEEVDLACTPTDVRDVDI
T1 sequence (Q16531 2-1140 limits assumed): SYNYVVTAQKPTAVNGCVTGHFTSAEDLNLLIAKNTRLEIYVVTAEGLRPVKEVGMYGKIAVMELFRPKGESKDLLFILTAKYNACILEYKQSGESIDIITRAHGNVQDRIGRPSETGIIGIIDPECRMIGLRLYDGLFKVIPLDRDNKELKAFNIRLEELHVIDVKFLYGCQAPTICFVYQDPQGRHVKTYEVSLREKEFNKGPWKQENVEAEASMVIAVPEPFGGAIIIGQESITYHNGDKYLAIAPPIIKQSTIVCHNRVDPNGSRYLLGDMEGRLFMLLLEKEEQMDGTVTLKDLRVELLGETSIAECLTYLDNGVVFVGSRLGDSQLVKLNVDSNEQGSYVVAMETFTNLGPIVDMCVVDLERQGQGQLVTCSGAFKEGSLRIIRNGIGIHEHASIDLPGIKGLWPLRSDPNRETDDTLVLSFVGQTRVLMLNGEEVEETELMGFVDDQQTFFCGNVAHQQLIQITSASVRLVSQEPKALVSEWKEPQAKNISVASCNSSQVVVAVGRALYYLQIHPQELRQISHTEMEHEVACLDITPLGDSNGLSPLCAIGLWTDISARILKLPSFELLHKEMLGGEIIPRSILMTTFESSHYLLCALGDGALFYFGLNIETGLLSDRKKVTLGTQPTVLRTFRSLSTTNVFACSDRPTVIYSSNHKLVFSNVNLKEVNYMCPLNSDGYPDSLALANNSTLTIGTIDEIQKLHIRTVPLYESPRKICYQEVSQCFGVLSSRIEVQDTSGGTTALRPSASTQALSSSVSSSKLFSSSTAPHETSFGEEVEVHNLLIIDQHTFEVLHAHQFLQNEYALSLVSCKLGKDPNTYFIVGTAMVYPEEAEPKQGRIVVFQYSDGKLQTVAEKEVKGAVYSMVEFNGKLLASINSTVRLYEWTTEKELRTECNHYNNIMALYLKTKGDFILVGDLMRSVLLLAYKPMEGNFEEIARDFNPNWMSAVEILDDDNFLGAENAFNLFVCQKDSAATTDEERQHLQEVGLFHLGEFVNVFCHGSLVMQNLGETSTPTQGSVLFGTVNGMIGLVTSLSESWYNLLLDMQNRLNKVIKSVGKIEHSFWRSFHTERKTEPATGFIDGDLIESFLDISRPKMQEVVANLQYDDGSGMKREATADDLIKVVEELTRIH

Regarding `CNc1ccc(C(=O)Nc2ccc(N(C)C)nn2)c(NC2CC3(CC(NC(=O)CN4CCN(c5ccc(Nc6ncc7c(C)c(C(C)=O)c(=O)n(C8CCCC8)c7n6)nc5)CC4)C3)C2)n1` (centres unmarked) [CPD-39, 2-((6-(2-(4-(6-((6-Acetyl-8-cyclopentyl-5-methyl-7-oxo-7,8-dihydropyrido[2,3-d]pyrimidin-2-yl)amino)pyridin-3-yl)piperazin-1-yl)acetamido)spiro[3.3]heptan-2-yl)amino)-N-(6-(dimethylamino)pyridazin-3-yl)-6-(methylamino)nicotinamide], the IC50 is 0.0326 µM in [1]; ≤ 0.05 µM in data set [4]; 0.0825 µM in data set [5]; > 0.1 µM in [6]; ≤ 0.01 µM in data set [9]. Further, in data set [2], the bioavailability at 12 h was ~15%. Further, the inhibition at 0.04 µM in data set [3] (40 nM) was 50 to 80%. Moreover, in data set [3] (200 nM), the inhibition at 0.2 µM lay within 50 to 80%. In addition, the AUC(0-inf) in [7] (iv, mice, 1 mg/kg i.v., read-out: AUCinf, i.v.) amounted to 1030 ng·h/mL; in data set [7] (po, fed mice, 10 mg/kg p.o., read-out: AUCinf, p.o.), 1580 ng·h/mL. In addition, in [7] (iv, mice, 1 mg/kg i.v., read-out: CL, i.v.), the clearance came out at 16.3 mL/min/kg. For the same compound, the Vd in [7] (iv, mice, 1 mg/kg i.v., read-out: VSS, i.v.) was 1.6 L/kg. Besides, the bioavailability in data set [7] (fed mice, 10 mg/kg oral vs 1 mg/kg i.v.) is > 15%. In addition, in data set [8], the “cell viability in palbociclib-resistant model” value is reported as “remained effective in T47D palbo-resistant model”.

For the compound `CC(=O)c1c(C)c2cnc(Nc3ccc(N4CCNCC4)cn3)nc2n(C2CCCC2)c1=O` [Palbociclib, palbociclib, reference compound], the cell apoptosis entry in data set [10] and in [17] was “much less effect on cell apoptosis” each time. For the same compound, the IC50 in data set [5] is > 10 µM. The “Annexin V+ population” value in [11] came to 17.7%; in data set [12] (100 nM), 15.9%; in data set [12] (1 μM) it was 26.1%. Moreover, the CCND3 protein level entry in data set [13] was “did not significantly change the levels of these proteins in Calu-1 cells”. The “effect on CCND1 protein levels (result in words)” value in [14] is on record as “accumulation of CCND1 protein levels”. Besides, the CCND1 protein level result in data set [15] (Calu-1 cells, 4 hours) is on record as “did not significantly change the levels of these proteins in Calu-1 cells”; in data set [15] (MCF7 cells, serum deprived 2 hours, treated 24 hours) it was “accumulated CCND1 protein levels in MCF7 cells”. Besides, the “effect on CCND and CDK4 protein levels (result in words)” value in data set [16] is given as “no significant effect”. Moreover, in data set [18], the CDK4 protein level entry is “did not significantly change the levels of these proteins in Calu-1 cells”.
